Results from patent US20230220010A1, “BROAD-SPECTRUM ANTIVIRAL PEPTIDES” (priority 2020, published 2023).
Ends that are not written are not given here.

Legend:
[1] = test system: dengue virus type 2; settings: read-out: EC50 against dengue virus (DENV); plaque assay
[2] = test system: herpes simplex virus type 1; settings: read-out: EC50 against herpes simplex virus (HSV); plaque assay
[3] = test system: Lassa pseudovirus (LASVpv); settings: 1 h
[4] = test system: HEK cells; test: Cytotoxicity with varying serum (FBS) concentrations, HEK cells; settings: 0-50% FBS
[5] = test system: HEK cells; test: Cytotoxicity with varying cell densities, HEK cells; settings: 5×10^3 to 1×10^5 cells/well
[6] = test system: Vero E6 cells; test: Cytotoxicity assay, CELLTITER-GLO, Vero E6 cells; settings: peptide concentrations at or below 2 μM, about 72 hours
[7] = test system: human adenovirus 5; settings: read-out: EC50 against adenovirus (AdV); plaque assay

RRGWLLLRLLRLLLRLLWGRR-NH2 [AHR] gave an EC50 [1] of 310 nM, an EC50 [2] of 157 nM and an EC50 [3] of less than 10000 nM. The “inhibition of LASVpv at 50 μM peptide” value ([3]; 50 μM) was “approximately 100%”, the “effect of serum concentration on cytotoxicity” value [4] was “cytotoxic in all serum concentrations at high peptide concentrations” and the “effect of cell density on cytotoxicity” value [5] was “increases as cell density increases”. For the same substance, the “cell viability, Vero E6 cells” value [6] was “High cell viability” and the EC50 [7] was 1100 nM.
